Literature values as cited in patent US20250339514A1, “SINGLE-AND MULTI-EPITOPE PEPTIDE AND MRNA VACCINES TO GENERATE TOLEROGENIC EFFECTS FOR ALLERGIC AND AUTOIMMUNE DISEASE BY TARGETING LIVER SINUSOIDAL ENDOTHELIAL CELLS” (The Regents of the University of California, priority 2022, published 2025).

Experiments:
lupus patients = conditions: Phase 1 and Phase 2 clinical trials; cited from earlier work
MRL/lpr mice = conditions: repeated administration; cited from earlier work

Substance: RIHMVYSKRpSGKPRGYAFIEY [P140]
- clinical efficacy (lupus patients): effective in treating lupus patients
- T-cell epitope spreading to other U1-70K regions (MRL/lpr mice): transiently abolishing T-cell epitope spreading
